The source of these data is ChEMBL document CHEMBL5625240, “Synthesis and evaluation of 2-NMPA derivatives as potential agents for prevention of osteoporosis in vitro and in vivo” (Eur J Med Chem, 2023).

pIC50: −log10 of the molar value. Calls of active or inactive are those of the source. The calls are words filed in the database; no cut-off is given here.

Data set [1] concerns BMDM. Put plainly: Anti-osteoporosis activity in mouse BMDM cells assessed as inhibition of RANKL-induced osteoclastogenesis at 1 uM measured for 30 mins in presence of MCSF by TRAP staining based assay. The settings on record: 0.5 h. It is filed as functional.
The test system of data set [2] is BMDM. Briefly: Downregulation of c-src expression in RANKL-induced mouse BMDM cells at 1 uM incubated for 4 days by Western blot analysis. It is filed as functional, cell-based. The settings on record: time 4.0 day. For orientation: In western blotting, separated proteins are transferred to a membrane and probed.
Data set [3] concerns Mus musculus. Briefly: Anti-osteoporosis activity in OVX-induced osteoporosis C57BL/6 mouse model assessed as reduction in […] level in serum at 10 mg/kg, ip daily for 4 weeks. Format: functional, organism-based.
The subject of data set [4] is BMDM. Put plainly: Inhibition of RANKL/M-CSF-induced osteoclastogenesis in mouse BMDM cells assessed as decrease in CTSK mRNA level at 1 uM incubated for 4 days by qRT-PCR analysis. The conditions noted are these: time 4.0 day. It is filed as functional, cell-based. On the technique in general: Real-time PCR tracks product formation cycle by cycle.
Data set [5] relates to Mus musculus. Put plainly: Anti-osteoporosis activity in OVX-induced osteoporosis C57BL/6 mouse model assessed as recovery of trabecular number in femur at 10 mg/kg, ip daily for 4 weeks by micro computed tomographic analysis. Format: functional, organism-based.
In data set [6] the test system is Mus musculus. Briefly: Anti-osteoporosis activity in OVX-induced osteoporosis C57BL/6 mouse model assessed as recovery of trabecular volume in femur at 10 mg/kg, ip daily for 4 weeks by micro computed tomographic analysis. Format: functional, organism-based.
Data set [7] relates to Mus musculus. Put plainly: Anti-osteoporosis activity in OVX-induced osteoporosis C57BL/6 mouse model assessed as recovery of trabecular separation in femur at 10 mg/kg, ip daily for 4 weeks by micro computed tomographic analysis. Format: functional, organism-based.
Data set [8] deals with BMDM. Briefly: Inhibition of PI3K phosphorylation in RANKL/M-CSF-induced mouse BMDM cells by Western blot analysis. It is filed as cell-based. The settings on record: dose 1.0 µM.
Data set [9] addresses T1, NF-kappa-B inhibitor alpha (Mus musculus) (UniProt Q9Z1E3).
T1 sequence (whole entry): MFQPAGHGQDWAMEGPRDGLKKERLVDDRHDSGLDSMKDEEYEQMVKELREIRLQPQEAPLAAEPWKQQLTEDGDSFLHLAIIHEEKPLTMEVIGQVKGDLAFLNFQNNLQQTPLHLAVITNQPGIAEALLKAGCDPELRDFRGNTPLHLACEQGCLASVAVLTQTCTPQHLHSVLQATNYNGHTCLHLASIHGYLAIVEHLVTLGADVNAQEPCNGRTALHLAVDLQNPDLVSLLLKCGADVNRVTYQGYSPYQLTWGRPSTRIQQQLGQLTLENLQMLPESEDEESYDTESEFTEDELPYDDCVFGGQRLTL
Put plainly: Inhibition of IkappaBalpha phosphorylation in RANKL/M-CSF-induced mouse BMDM cells by Western blot analysis. Format: cell-based. The settings on record: dose 1.0 µM.

For data set [10], the system named is BMDM. Put plainly: Inhibition of RANKL/M-CSF-induced osteoclastogenesis in mouse BMDM cells assessed as decrease in Nfatc1 mRNA level at 1 uM incubated for 4 days by qRT-PCR analysis. Format: functional, cell-based. The settings on record: time 4.0 day.
In data set [11] the test system is BMDM. Briefly: Inhibition of RANKL/M-CSF-induced osteoclastogenesis in mouse BMDM cells assessed as decrease in Dc-stamp mRNA level at 1 uM incubated for 4 days by qRT-PCR analysis. Format: functional, cell-based. The conditions noted are these: time 4.0 day.
For data set [12], the system named is BMDM. Put plainly: Inhibition of RANKL/M-CSF-induced osteoclastogenesis in mouse BMDM cells assessed as decrease in Mmp9 mRNA level at 1 uM incubated for 4 days by qRT-PCR analysis. Format: functional, cell-based. The conditions noted are these: time 4.0 day.
Data set [13] deals with BMDM. Put plainly: Inhibition of RANKL/M-CSF-induced osteoclastogenesis in mouse BMDM cells assessed as decrease in Atp6v0d2 mRNA level at 1 uM incubated for 4 days by qRT-PCR analysis. It is filed as functional, cell-based. The settings on record: time 4.0 day.
For data set [14], the system named is BMDM. Briefly: Inhibition of AKT phosphorylation in RANKL/M-CSF-induced mouse BMDM cells by Western blot analysis. It is filed as cell-based. The settings on record: dose 1.0 µM.
The subject of data set [15] is Mus musculus. Put plainly: Anti-osteoporosis activity in OVX-induced osteoporosis C57BL/6 mouse model assessed as prevention of bone loss in femur at 10 mg/kg, ip daily for 4 weeks by micro computed tomographic analysis. Format: functional, organism-based.
Data set [16] has as its system BMDM. Put plainly: Anti-osteoporosis activity in mouse BMDM cells assessed as inhibition of RANKL/M-CSF-induced osteoclasts formation measured for 4 days by TRAP staining based assay. Format: functional, cell-based.
In data set [17] the test system is BMDM. Briefly: Downregulation of c-fos expression in RANKL-induced mouse BMDM cells at 1 uM incubated for 4 days by Western blot analysis. Format: functional, cell-based. The conditions noted are these: time 4.0 day.
Data set [18] relates to BMDM. Put plainly: Inhibition of RANKL/M-CSF-induced osteoclastogenesis in mouse BMDM cells assessed as decrease in Acp5 mRNA level at 1 uM incubated for 4 days by qRT-PCR analysis. It is filed as functional, cell-based. The settings on record: time 4.0 day.
Data set [19] has as its system BMDM. Briefly: Anti-osteoclastogenesis activity in RANKL/M-CSF-induced mouse BMDM cells assessed as inhibition of TRAF6 protein expression at 1 uM measured for 4 days. Format: functional, cell-based. The settings on record: time 4.0 day.
Data set [20] relates to BMDM. Briefly: Downregulation of CTSK expression in RANKL-induced mouse BMDM cells at 1 uM incubated for 4 days by Western blot analysis. It is filed as functional, cell-based. The conditions noted are these: time 4.0 day.
Data set [21] concerns BMDM. Put plainly: Inhibition of RANKL/M-CSF-induced osteoclastogenesis in mouse BMDM cells assessed as decrease in bone resorption pit number at 500 to 2000 nM incubated for 6 days by microscopic analysis. Format: functional, cell-based. The conditions noted are these: dose 500-2000 nM, time 6.0 day.
Data set [22] has as its system BMDM. Put plainly: Cytotoxicity against mouse BMDM cells assessed as reduction in cell viability at < 4 uM incubated for 48 hrs. Format: toxicity, cell-based.
Data set [23] deals with Mus musculus. Put plainly: Anti-osteoporosis activity in OVX-induced osteoporosis C57BL/6 mouse model assessed as recovery of bone surface density in femur at 10 mg/kg, ip daily for 4 weeks by micro computed tomographic analysis. It is filed as functional, organism-based.
For data set [24], the system named is BMDM. Briefly: Inhibition of RANKL/M-CSF-induced osteoclastogenesis in mouse BMDM cells assessed as reduction in F-actin belt size formation at 1000 nM incubated for 6 days by immunofluorescence assay. The conditions noted are these: time 6.0 day. Format: functional, cell-based.
Data set [25] deals with BMDM. Briefly: Inhibition of RANKL/M-CSF-induced osteoclastogenesis in mouse BMDM cells assessed as reduction in F-actin belt size formation at 1 uM incubated for 6 days by immunofluorescence assay. It is filed as functional, cell-based. The settings on record: time 6.0 day.
Data set [26] concerns BMDM. Put plainly: Inhibition of RANKL/M-CSF-induced osteoclastogenesis in mouse BMDM cells assessed as decrease in bone resorption pit size at 500 to 2000 nM incubated for 6 days by microscopic analysis. It is filed as functional, cell-based. The settings on record: dose 500-2000 nM, time 6.0 day.
In data set [27] the test system is BMDM. Put plainly: Anti-osteoclastogenesis activity in mouse BMDM cells assessed as inhibition of RANKL/M-CSF-induced osteoclasts differentiation at below 2 uM measured for 9 days by […] staining based assay. It is filed as functional, cell-based. The conditions noted are these: time 9.0 day.
Data set [28] deals with BMDM. Briefly: Downregulation of TRAF6 expression in RANKL-induced mouse BMDM cells at 1 uM incubated for 4 days by Western blot analysis. It is filed as functional, cell-based. The settings on record: time 4.0 day.
Data set [29] has as its system BMDM. Put plainly: Anti-osteoclastogenesis activity in mouse BMDM cells assessed as inhibition of RANKL/M-CSF-induced osteoclasts differentiation at 2 uM measured for 9 days by […] staining based assay. It is filed as functional. The settings on record: 216 h, time 9 day.
Data set [30] relates to BMDM. Briefly: Downregulation of NFATc1 expression in mouse RANKL-induced BMDM cells at 1 uM incubated for 4 days by Western blot analysis. It is filed as functional, cell-based. The conditions noted are these: time 4.0 day.
For data set [31], the system named is BMDM. Briefly: Inhibition of NF-kappaB phosphorylation in RANKL/M-CSF-induced mouse BMDM cells by Western blot analysis. It is filed as cell-based. The conditions noted are these: dose 1.0 µM.
Data set [32] has as its system BMDM. Briefly: Inhibition of RANKL/M-CSF-induced osteoclastogenesis in mouse BMDM cells assessed as reduction in F-actin belt size formation at 500 to 2000 nM incubated for 6 days by immunofluorescence assay. Format: functional, cell-based. The settings on record: dose 500-2000 nM, time 6.0 day.
The test system of data set [33] is BMDM. Put plainly: Anti-osteoporosis activity in mouse BMDM cells assessed as inhibition of RANKL-induced osteoclastogenesis at 2 uM measured for 30 mins in presence of MCSF by TRAP staining based assay. The settings on record: Mus musculus, BMDM, 0.5 h. It is filed as functional.
Data set [34] relates to BMDM. Briefly: Anti-osteoporosis activity in mouse BMDM cells assessed as inhibition of […]-induced osteoclastogenesis at 2 uM measured for 30 mins in presence of MCSF by TRAP staining based assay. Format: functional. The settings on record: 0.5 h.

Regarding `CC(C)(C)OC(=O)N[C@@H](Cc1cn(C(=O)OC(C)(C)C)cn1)C(=O)Oc1ccc(NC(=O)COc2ccccc2Cl)c(N2CCOCC2)c1`, the inhibition at 1 µM in the data set with BMDM [1] worked out at 34.6%.

For `O=C(COc1ccccc1Cl)Nc1ccc(OS(=O)(=O)C(F)(F)F)cc1N1CCOCC1`, the inhibition at 1 µM with BMDM [1] stood at 50.5%.

Regarding `CC(=O)Nc1ccc(S(=O)(=O)Oc2ccc(NC(=O)COc3ccccc3Cl)c(N3CCOCC3)c2)cc1`, the result with BMDM [2], with Mus musculus [3], in the data set with Mus musculus [5], in the data set on Mus musculus [6], in the data set with Mus musculus [7] and in the data set with Mus musculus [15] was Active. The result in the data set with BMDM [17], in the data set with BMDM [19], in the data set with BMDM [20], in the data set on Mus musculus [23], in the data set on BMDM [28] and in the data set with BMDM [30] was Active. Moreover, the inhibition result (in the data set with BMDM [4]; with BMDM [8]; in data set [9]; in the data set on BMDM [10]; in the data set on BMDM [11]; in the data set on BMDM [12]) was “Active” throughout. Moreover, the inhibition result with BMDM [13], in the data set with BMDM [14], in the data set on BMDM [18], with BMDM [21], in the data set with BMDM [24] and with BMDM [25] was “Active” throughout. Also, the inhibition result with BMDM [26], in the data set on BMDM [31] and in the data set on BMDM [32] was “Active” in each case. Besides, the inhibition at 1 µM in the data set on BMDM [1] amounted to 61.5%. In addition, the negative-log IC50 (pIC50) in the data set with BMDM [16] (96 h) is 6.45. Moreover, the inhibition entry with BMDM [16] (dose <= 4000.0 nM, time 4.0 day) was “Dose-Dependent Effect”. Moreover, the Activity entry in the data set with BMDM [22] is recorded as “Non-Toxic”. In addition, the inhibition entry in the data set with BMDM [27] was “inactive”. Moreover, the inhibition at 2 µM in the data set on BMDM [29] was determined as 100%.

`CS(=O)(=O)N(CC(=O)Nc1ccccc1Sc1ccccc1)c1cccc(C(=O)Oc2ccc(NC(=O)COc3ccccc3Cl)c(N3CCOCC3)c2)c1`: the inhibition at 1 µM with BMDM [1] amounted to 50.9%.

On to `O=C(COc1ccccc1Cl)Nc1ccc(OC(=O)c2cccs2)cc1N1CCOCC1`, for which the inhibition at 1 µM in the data set on BMDM [1] amounted to 39.3%.

For the molecule `Cc1cccc(OCC(=O)Nc2ccccc2N2CCOCC2)c1C`, the inhibition at 2 µM in the data set on BMDM [33] came to 13.6%.

Turning to `Cc1ccc(OCC(=O)Nc2cccc(Cl)c2N2CCOCC2)c(C(C)C)c1`, the inhibition at 2 µM came out at 86.4% with BMDM [33] and 82.9% with BMDM [34].

For the molecule `Cc1cc(=O)oc2cc(OCC(=O)Nc3cc(C(F)(F)F)ccc3N3CCOCC3)ccc12`, the inhibition at 2 µM stood at 95.3% with BMDM [33] and 29.4% in the data set with BMDM [34].

`NCCCC(O)(P(=O)(O)O)P(=O)(O)O` [ALENDRONIC ACID]: in the data set on BMDM [33], the inhibition at 2 µM came to 67.9%.

Take `O=C(COc1ccccc1Cl)Nc1ccccc1N1CCOCC1`: the inhibition at 1 µM in the data set on BMDM [1] is 21%.

`CC(Oc1ccc(Cl)cc1Cl)C(=O)Nc1cccc(Cl)c1N1CCOCC1` (stereo unspecified): the inhibition at 2 µM in the data set on BMDM [33] is 43.4%.

As to `O=C(COc1ccccc1Cl)Nc1ccc(OC(=O)c2ccccc2F)cc1N1CCOCC1`, the inhibition at 1 µM in the data set on BMDM [1] came to 34.2%.

For orientation: inhibition means the share of the control response that was lost under treatment. The pIC50 is the negative decadic logarithm of the IC50, by convention in mol/L.
